Experimental data reported in patent publication US8940310B2, “Methods of treatment using TLR7 and/or TLR9 inhibitors” (Dynavax Technologies Corporation, priority 2010, dated 2015).
Marks after values point to notes of the source that are not given here. [I] = hypoxanthine (inosine)

Key:
[1] = Monomer and tetramer formation of IRPs, size-exclusion HPLC; assay type: physicochemical; conditions: 100 mg/mL in PBS and 0.5M KCl, room temperature, five weeks
Method: Solutions were prepared of the by mixing 100 mg/mL of the IRP sequences in PBS and 0.5M KCl and storing at room temperature for three to five weeks. The solutions were subsequently analyzed by size-exclusion HPLC.

[2] = High dosages of IRPs in rats (weight, deaths, histology); assay type: in vivo, Sprague Dawley rats; conditions: rat; for Heart: Cell Vacuolation, number of animals / Heart: Hemorrhage, number of animals / Heart: Mononuclear Cell Infiltration, number of animals / Heart: Necrosis, number of animals / Heart: No significant changes, number of animals / Liver: Liver changes, number of animals / Liver: Mixed cell infiltration, number of animals / Liver: Necrosis, number of animals / Liver: No significant changes, number of animals / Liver: Vacuolation, number of animals / Right Kidney: Hydronephrosis, number of animals / Right Kidney: Mineralization, number of animals / Right Kidney: Necrosis, number of animals / Right Kidney: No significant changes, number of animals / Right Kidney: Tubular basophilia, number of animals / Right Kidney: Tubular changes, number of animals: 6 animals
Method: To test the activity of IRPs at high dosages in rats, IRPs (SEQ ID NO:42 and SEQ ID NO:109) or a control (PBS) were subcutaneously administered to 8-9 weeks old, […], 3, 6, and 9 (n=6 per group). Rats were weighed prior to administration and on days 1, 3, 4, 6, 7, and 9. Organs were harvested at the end of the study, and organ weights and tissues levels of the oligonucleotides were determined. In addition, histolocial evaluation of the liver, kidney, and heart was performed.
Rats were weighed prior to administration and on days 1, 3, 6, 7, and 9. Organs were harvested at the end of the study, and organ weights and tissues levels of the oligonucleotides were determined. In addition, histological evaluation of the liver, kidney, and heart was performed.

[3] = High dosages of IRPs in mice (weight, histology); assay type: in vivo, BALB/c mice; conditions: for Heart: Chronic inflammation, mean severity score / Heart: Mineralization, mean severity score / Liver: Liver changes, mean severity score / Liver: Mixed cell infiltration, mean severity score / Right Kidney: Tubular changes, mean severity score: 0 = no change to 4 = severe; for Liver: Liver changes, number of animals / Liver: Mixed cell infiltration, number of animals / Liver: No significan changes, number of animals / Right Kidney: No significant changes, number of animals / Right Kidney: Tubular basophilia, number of animals / Right Kidney: Tubular changes, number of animals: 6 animals; for Heart: No significant changes, number of animals: tissue missing in two animals
Method: To test the activity of IRPs at high dosages in mice, IRPs or a control (saline) were subcutaneously administered to BALB/c mice at a dosage of 4 mg/kg, 20 mg/kg, 50 mg/kg, or 100 mg/kg on days 1, 4, 7, and 10 (n=5 per group). Mice were weighed prior to administration and on days 2, 4, 7, 9, and 11. Serum cytokines were assayed at two hours post the first and third injections and 24 hours post the fourth injection. Organs were harvested at the end of the study, and organ weights and tissues levels of the oligonucleotides were determined. In addition, histological evaluation of the liver, kidney, and heart was performed.
Mice were weighed prior to administration and on days 1, 3, 4, 6, 7, and 9. Organs were harvested at the end of the study, and organ weights and tissues levels of the oligonucleotides were determined. In addition, histological evaluation of the liver, kidney, and heart was performed.

human B-cells = assay: Human B-cells cultured in the presence of IRPs, IL-6; conditions: for B-cell stimulatory activity: FIG. 1C, percent IL-6 from CpG-ISS
Method: For the human B-cell assay, B-cells were purified from total blood cells obtained from healthy donors using magnetic beads (CD19 positive). Cells were resuspended in fresh medium (RPMI 1640 with 10% fetal calf serum, 50 units/mL penicillin, 50 μg/mL streptomycin, and 2 mM glutamine). At 48 hours, supernatants were collected and cytokine levels, IL-6, were measured using immunoassay.
To further investigate the effect of IRPs on B-cell stimulatory activity, a wide variety of IRP sequences were assayed for IL-6, along with positive and negative controls. The experiment was performed as described in Example 1 using doses of IRP of either 4.0 μM or 2.0 μM. The positive control was an immunostimulatory sequence (ISS) with SEQ ID NO:157. […] The results are presented as the average normalized IL-6 response over several experiments.

[4] = 10 mg/kg, 0 = no change to 4 = severe
[5] = 90 mg/kg, 0 = no change to 4 = severe
[6] = Experiment # 3, Max Conc 4.0 uM

## 5′-TGC TGC TCC TGG AGI GGT GTT GT-3′ (DNA TGCTGCTCCTGGAGNGGTGTTGT; DNA, [I] at 15, backbone and methylation of C not given here) [SEQ ID NO:79]
[1]
  fraction in monomer form: 100%
[2]; 10 mg/kg
  Heart: Cell Vacuolation, number of animals: 0
  Heart: Hemorrhage, number of animals: 0
  Heart: Mononuclear Cell Infiltration, number of animals: 0
  Heart: Necrosis, number of animals: 0
  Heart: No significant changes, number of animals: 6
  Liver: Liver changes, number of animals: 0
  Liver: Mixed cell infiltration, number of animals: 6
  Liver: Necrosis, number of animals: 0
  Liver: No significant changes, number of animals: 0
  Liver: Vacuolation, number of animals: 0
  Right Kidney: Hydronephrosis, number of animals: 0
  Right Kidney: Mineralization, number of animals: 2
  Right Kidney: Necrosis, number of animals: 0
  Right Kidney: No significant changes, number of animals: 1
  Right Kidney: Tubular basophilia, number of animals: 0
  Right Kidney: Tubular changes, number of animals: 5
[2]; [4]
  Liver: Mixed cell infiltration, mean severity score: 1.8
  Right Kidney: Mineralization, mean severity score: 1.0
  Right Kidney: Tubular changes, mean severity score: 1.1
[2]; 90 mg/kg
  Heart: cellular vacuolation: present in some animals
  Heart: hemorrhage and necrosis: noted
  Kidney: tubular basophilia: occurred
  Liver: hepatocellular cytoplasmic vacuolation: hepatocellular cytoplasmic vacuolation
  Liver: hepatocellular necrosis: hepatocellular necrosis
  Renal necrosis: noted
  Heart: Cell Vacuolation, number of animals: 2
  Heart: Hemorrhage, number of animals: 2
  Heart: Mononuclear Cell Infiltration, number of animals: 0
  Heart: Necrosis, number of animals: 3
  Heart: No significant changes, number of animals: 1
  Liver: Liver changes, number of animals: 3
  Liver: Mixed cell infiltration, number of animals: 3
  Liver: Necrosis, number of animals: 2
  Liver: No significant changes, number of animals: 0
  Liver: Vacuolation, number of animals: 3
  Right Kidney: Hydronephrosis, number of animals: 0
  Right Kidney: Mineralization, number of animals: 1
  Right Kidney: Necrosis, number of animals: 3
  Right Kidney: No significant changes, number of animals: 0
  Right Kidney: Tubular basophilia, number of animals: 2
  Right Kidney: Tubular changes, number of animals: 3
[2]; 90 mg/kg SC, n=6
  deaths two days after the first dose: two rats died
  deaths two days after the second dose: one rat died
[2]; [5]
  Heart: Cell Vacuolation, mean severity score: 1.5
  Heart: Hemorrhage, mean severity score: 3.5
  Heart: Necrosis, mean severity score: 2.0
  Liver: Liver changes, mean severity score: 1.8
  Liver: Mixed cell infiltration, mean severity score: 2.5
  Liver: Necrosis, mean severity score: 2.8
  Liver: Vacuolation, mean severity score: 2.3
  Right Kidney: Mineralization, mean severity score: 2.0
  Right Kidney: Necrosis, mean severity score: 4.0
  Right Kidney: Tubular basophilia, mean severity score: 2.8
  Right Kidney: Tubular changes, mean severity score: 2.0
[3]; 50 mg/kg
  Heart: Chronic inflammation, number of animals: 2
  Heart: Mineralization, number of animals: 1
  Heart: Chronic inflammation, mean severity score: 2.0
  Heart: Mineralization, mean severity score: 2.0
  Liver: Liver changes, mean severity score: 1.0
  Liver: Mixed cell infiltration, mean severity score: 1.0
  Liver: Liver changes, number of animals: 6
  Liver: Mixed cell infiltration, number of animals: 4
  Liver: No significan changes, number of animals: 0
  Right Kidney: No significant changes, number of animals: 6
  Right Kidney: Tubular basophilia, number of animals: 0
  Right Kidney: Tubular changes, number of animals: 0
  Heart: No significant changes, number of animals: 1**
[3]; 100 mg/kg
  Heart: Chronic inflammation, number of animals: 1
  Heart: Mineralization, number of animals: 2
  Heart: Chronic inflammation, mean severity score: 3.0
  Heart: Mineralization, mean severity score: 2.5
  Liver: Liver changes, mean severity score: 2.0
  Liver: Mixed cell infiltration, mean severity score: 2.0
  Right Kidney: Tubular changes, mean severity score: 2.0
  Liver: Liver changes, number of animals: 6
  Liver: Mixed cell infiltration, number of animals: 6
  Liver: No significan changes, number of animals: 0
  Right Kidney: No significant changes, number of animals: 0
  Right Kidney: Tubular basophilia, number of animals: 0
  Right Kidney: Tubular changes, number of animals: 6
  Heart: No significant changes, number of animals: 1**
Human B-cells; Experiment # 1, Max Conc 4.0 uM
  Normalized IL-6 Response (Percentage of Positive Control): 33%
Human B-cells; [6]
  Normalized IL-6 Response (Percentage of Positive Control): 18%
Human B-cells; Experiment # 11, Max Conc 2.0 uM
  Normalized IL-6 Response (Percentage of Positive Control): 28%
Human B-cells
  B-cell stimulatory activity: low B-cell stimulatory activity

## 5′-TGC TGC TCC TGG AGI GGT TG-HEG-T-3′ (DNA TGCTGCTCCTGGAGNGGTTGNT; inosine, internal HEG spacer, chemistry not fully specified) [SEQ ID NO:144]
[1]
  fraction in monomer form: 100%
[2]; 10 mg/kg
  Liver: hepatocellular cytoplasmic vacuolation: hepatocellular cytoplasmic vacuolation
[2]; 90 mg/kg
  Heart: cellular vacuolation: present in some animals
  Kidney: tubular basophilia: occurred
  Liver: hepatocellular cytoplasmic vacuolation: hepatocellular cytoplasmic vacuolation
  Liver: hepatocellular necrosis: hepatocellular necrosis
[3]; 100 mg/kg
  Heart: Chronic inflammation, number of animals: 1
  Heart: Mineralization, number of animals: 2
  Heart: Chronic inflammation, mean severity score: 3.0
  Heart: Mineralization, mean severity score: 2.5
  Liver: Liver changes, mean severity score: 2.0
  Liver: Mixed cell infiltration, mean severity score: 2.0
  Right Kidney: Tubular changes, mean severity score: 2.0
  Liver: Liver changes, number of animals: 6
  Liver: Mixed cell infiltration, number of animals: 6
  Liver: No significan changes, number of animals: 0
  Right Kidney: No significant changes, number of animals: 0
  Right Kidney: Tubular basophilia, number of animals: 0
  Right Kidney: Tubular changes, number of animals: 6
  Heart: No significant changes, number of animals: 1**
Human B-cells; [6]
  Normalized IL-6 Response (Percentage of Positive Control): 10%
Human B-cells
  B-cell stimulatory activity: low B-cell stimulatory activity
